Measurements: patent US20240415858A1, “PROMOTING MYELINATION BY N-ACETYLGLUCOSAMINE AND MODULATION OF N-GLYCAN BRANCHING” (THE REGENTS OF THE UNIVERSITY OF CALIFORNIA, priority 2021, published 2024)

System: MS patients
Test: Phase 1 trial: four-week confirmed improvement in disability (EDSS)
Type: in vivo, human
Settings: unblinded
Procedure: Four-week confirmed improvement in disability (EDSS) was also evaluated in the 6 g and 12 g cohorts. […] Baseline EDSS scores were compared with scores after 4 weeks of oral GIcNAc that were confirmed 4 weeks later at the last study visit.

CC(=O)N[C@H]1C(O)O[C@H](CO)[C@@H](O)[C@@H]1O (some centres unmarked) [GIcNAc, N-acetylglucosamine]
subjects with 4-week confirmed improvement in clinical disability (EDSS) (6 g/day, 4 of 18 subjects): 22% | subjects with 4-week confirmed improvement in clinical disability (EDSS) (12 g/day, 5 of 16 subjects): 31%
